Test results: PMC5743070 (The Journal of Biological Chemistry, 2017)
pKd: −log10 of the molar value. Several values for one entry are separate records, joined by “and”; a condition that tells them apart may be missing. Equal values may be shown once. Read-outs that look alike come from different tables or passages of the source.

Columns and labels:
TTD (UHRF1_121–286) = biological target: T1, TTD (UHRF1_121–286) (Homo sapiens, UniProt Q96T88); assay: ITC of BPC binding to TTD
T1 construct: UHRF1_121–286 corresponding to the TTD; made in house
T1 sequence (Q96T88 121-286): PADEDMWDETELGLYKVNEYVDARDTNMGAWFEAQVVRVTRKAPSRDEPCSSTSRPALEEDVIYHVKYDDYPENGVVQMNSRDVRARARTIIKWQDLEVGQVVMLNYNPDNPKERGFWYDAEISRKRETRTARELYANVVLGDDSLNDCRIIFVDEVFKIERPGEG
Method: For ITC measurements of TTD–PHD (UHRF1_126–366) interaction with H3K9me3, samples were dialyzed into a buffer containing 10 mM HEPES (pH 7.5), 150 mM NaCl, 1 mM TCEP, and 30 μM ZnCl2. […] A preliminary peptide injection of 0.06 μl was followed by subsequent 2-μl injections into the sample cell containing 167 μl of 50 μM TTD–PHD. Where indicated, 1.5 mM BPC or 1.5 mM PBR peptide was included in the injection syringe and sample cell. The reported KD and n values are based on the average from two measurements. For ITC measurements of TTD (UHRF1_121–286) interaction with BPC, the protein was buffered in 20 mM Tris (pH 7.4), 50 mM NaCl, and 5% DMSO. BPC was brought to a concentration of 2.5 mM and injected into the sample cell containing 40 μM protein. The data were acquired on a Nano ITC from TA Instruments at 25 °C and fitted with an independent-binding site model using NanoAnalyze software (v3.7.0). […]
Binding of BPC in the groove of TTD.
labeled (at the N-terminus) H3K9me3(1-25) peptide, (B) ITC, and (C) DSF. […]

[1] = biological target: isolated TTD (UHRF1_121–286); assay: FP displacement of FITC-labeled H3K9me3(1–25) peptide from TTD; type: biochemical; settings: FP displacement of N-terminally FITC-labeled H3K9me3(1-25), 0.04 μM peptide, 8 μM TTD, 20 mM Tris pH 8.5, 50 mM NaCl, 3% DMSO, 0.01% TX100
Text: We designed a fragment library containing 2,040 compounds that was initially screened against isolated TTD (UHRF1_121–286) using a fluorescence polarization (FP) assay that tracked the displacement of a N-terminally tagged H3K9me3 peptide (H3K9me3(1–25)). From this screen, eight putative TTD-binding hits were identified. […] Because of limited commercial availability of the tricyclic amine, we focused only on BPC. The binding of this compound occurs close to (or within) the Arg^296-binding pocket; we observe significant perturbation of Trp^238 and Phe^278 resonances that form part of the pocket, and in Gly^236, which is directly adjacent to it (Fig. 4A and supplemental Fig. S5). We also see chemical shift changes in non-surface exposed residues that are close to or are in contact with the groove.
For FP assays, the TTD (UHRF1_121–286) was buffered in 20 mM Tris (pH 8.5), 50 mM NaCl, 3% DMSO, and 0.01% TX100. N-terminal FITC-labeled H3K9me3(1–25) peptide was synthesized and purified by Tufts University Core Services (Boston, MA). Titrations and compound binding assays were performed in a 10-μl volume at a constant labeled peptide concentration of 0.04 μM. For compound screening and titrations, a non-saturating fixed protein concentration of 8 μM TTD was used. FP assays were performed in 384-well Axygen plates using a Synergy 4 microplate reader (BioTek). […]

[2] = ITC, 2.5 mM BPC into 40 μM TTD, pH 7.4, 5% DMSO, 25 °C

pKd (TTD (UHRF1_121–286); ITC, 2.5 mM BPC into 40 μM TTD, 20 mM Tris pH 7.4, 50 mM NaCl, 5% DMSO, 25 °C, independent-binding site model, read-out: KD): 4.34 | H (enthalpy of binding, ITC) (TTD (UHRF1_121–286); [2]): -2.6 kcal/mol | S (entropy of binding, ITC) (TTD (UHRF1_121–286); [2]): 11.0 cal/mol∙K | calculated ligand efficiency (binding energy per heavy atom) (TTD (UHRF1_121–286); calculated from KD for TTD): 0.38 | pKd (TTD (UHRF1_121–286); isolated TTD, estimated using ITC and DSF, read-out: estimated KD): 4.30 and ~4.30 | Kdisp [1]: 312 µM
SMILES: N=C(N)N1CCC(Cc2ccccc2)CC1 [BPC, 4-benzylpiperidine-1-carboximidamide]
